Results as given in patent US10159656B2, “Methods for use of epinephrine fine particles for treatment of conditions responsive to epinephrine” (NOVA SOUTHEASTERN UNIVERSITY, priority 2013, dated 2018).

Experiments:
[1] = one cycle at 30,000 Psi
Description: The processed EpiBit were tested for stability and removal of isopropyl alcohol using FT-IR spectrometer, spectrum 100 (PerkinElmer, Waltham, Mass.) scanned from 4000-650 cm^−1.

[2] = after processing, one cycle at 30,000 Psi
[3] = one cycle at 30,000 Psi; remark: listed apart in the source
Description: Also, the processed EpiBit were tested for purity, stability, and crystallinity changes using Differential Scanning calorimetry (DSC) 4000 (PerkinElmer, Waltham, Mass.) that was calibrated using an indium standard and heated from 30 to 300° C. at rate of 10° C./min and with a nitrogen purge of 20 mL/min.

[4] = Description: The average particles size (by volume) of EpiBit before processing was measured using laser diffraction technique using Mastersizer (Malvern Instruments Inc, Westborough, Mass.).
[5] = EpiBit before processing, by volume, n=6, text
[6] = EpiBit before processing, by volume, listed as EpiBit crystals before processing

Structure (SMILES)	degradation after processing (FT-IR spectra before and after) [1]	particles size distribution by intensity ([2]; n=3) [μm]	particles size distribution by volume ([2]; n=3) [μm]	Z-potential ([2]; listed as EpiBit crystals after processing) [mV]	degradation or crystallinity change after processing (DSC) [3]	10th percentile (Dv0.1) particle size [4, 5] [nm]	median (Dv0.5) particle size [4, 5] [nm]	D (4, 3) mean volume particle size [4, 6] [μm]	D(0.9) particle size [4, 6] [μm]	reduction of particles size of EpiBit crystals ([4]; after versus before processing)
CNC[C@H](O)c1ccc(O)c(O)c1.O=C(O)C(O)C(O)C(=O)O [EpiBit After Processing, epinephrine bitartrate microcrystals]	no evidence of EpiBit degradation after processing	2.4±0.4	2.5±0.4	−4.5±1.4	no evidence of EpiBit degradation or crystallinity change after processing					
CNC[C@H](O)c1ccc(O)c(O)c1.O=C(O)C(O)C(O)C(=O)O [EpiBit Before Processing, (−)-Epinephrine (+) bitartrate]						39.8±3.0	113.6±9.1	131.8±10.5	254.8±20.1	up to 55 folds
